Source: PubChem BioAssay (NCI)
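Growth conditions: 96-well plates. Treatment: test compound, 48 hours, 5 concentrations. Analysis: linear interpolation between bracketing concentrations; unreached endpoints set to highest concentration. TGI is the concentration that stops growth completely.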

How the values were obtained:
Experiment in all cases: DTP human tumour cell line panel, 48 h
U251 CNS = tested on: U251 CNS
ACHN renal = tested on: ACHN renal
HL-60(TB) leukemia = tested on: HL-60(TB) leukemia
K-562 leukemia = tested on: K-562 leukemia
NCI-H23 lung = tested on: NCI-H23 lung
OVCAR-5 ovarian = tested on: OVCAR-5 ovarian
UACC-62 melanoma = tested on: UACC-62 melanoma
M14 melanoma = tested on: M14 melanoma
A498 renal = tested on: A498 renal
COLO 205 colon = tested on: COLO 205 colon
MALME-3M melanoma = tested on: MALME-3M melanoma
UO-31 renal = tested on: UO-31 renal
SK-MEL-28 melanoma = tested on: SK-MEL-28 melanoma
RPMI-8226 leukemia = tested on: RPMI-8226 leukemia
A549 NSCLC = tested on: A549 NSCLC
SK-MEL-5 melanoma = tested on: SK-MEL-5 melanoma
HCC-2998 colon = tested on: HCC-2998 colon
MOLT-4 leukemia = tested on: MOLT-4 leukemia
NCI/ADR-RES ovarian = tested on: NCI/ADR-RES ovarian
MDA-MB-435 = tested on: MDA-MB-435

COC1C=CC(C(=O)[N+]2=Cc3[nH]c4ccccc4c3CC2)O1 (stereo not given) gave a TGI (U251 CNS) of over 100 µM, a TGI (ACHN renal) of over 100 µM and a TGI (HL-60(TB) leukemia) of over 100 µM. For the same compound, the TGI (K-562 leukemia) was over 100 µM, the TGI (NCI-H23 lung) was over 100 µM and the TGI (OVCAR-5 ovarian) was over 100 µM. It also gave a TGI (UACC-62 melanoma) of over 100 µM, a TGI (M14 melanoma) of over 100 µM and a TGI (A498 renal) of over 100 µM. It also gave a TGI (COLO 205 colon) of over 100 µM, a TGI (MALME-3M melanoma) of over 100 µM and a TGI (UO-31 renal) of over 100 µM. For the same compound, the TGI (SK-MEL-28 melanoma) was over 100 µM, the TGI (RPMI-8226 leukemia) was over 100 µM and the TGI (A549 NSCLC) was over 100 µM. It also gave a TGI (SK-MEL-5 melanoma) of over 100 µM, a TGI (HCC-2998 colon) of over 100 µM and a TGI (MOLT-4 leukemia) of over 100 µM.

COc1ccc(NC(=O)C(=O)C2CNC(=O)NC2=O)c(OC)c1 (stereo not given) gave a TGI (U251 CNS) of over 100 µM, a TGI (ACHN renal) of over 100 µM and a TGI (HL-60(TB) leukemia) of over 100 µM. It also gave a TGI (K-562 leukemia) of over 100 µM, a TGI (NCI-H23 lung) of over 100 µM and a TGI (OVCAR-5 ovarian) of over 100 µM. For the same compound, the TGI (UACC-62 melanoma) was over 100 µM, the TGI (M14 melanoma) was over 100 µM and the TGI (COLO 205 colon) was over 100 µM. The TGI (MALME-3M melanoma) was over 100 µM, the TGI (UO-31 renal) was over 100 µM and the TGI (SK-MEL-28 melanoma) was over 100 µM. The TGI (RPMI-8226 leukemia) was over 100 µM, the TGI (A549 NSCLC) was over 100 µM and the TGI (SK-MEL-5 melanoma) was over 100 µM. The TGI (HCC-2998 colon) was over 100 µM and the TGI (MOLT-4 leukemia) was over 100 µM.

CCOc1ccccc1N=Nc1c(-c2ccccc2)nn(C(=O)CC(=O)Nc2cccc(Cl)c2)c1-c1ccccc1 was tested, and the TGI (U251 CNS) was over 100 µM, the TGI (ACHN renal) was over 100 µM and the TGI (HL-60(TB) leukemia) was over 100 µM. The TGI (K-562 leukemia) was over 100 µM, the TGI (NCI-H23 lung) was over 100 µM and the TGI (OVCAR-5 ovarian) was over 100 µM. It also gave a TGI (UACC-62 melanoma) of over 100 µM, a TGI (M14 melanoma) of over 100 µM and a TGI (COLO 205 colon) of over 100 µM. It also gave a TGI (MALME-3M melanoma) of over 100 µM, a TGI (UO-31 renal) of over 100 µM and a TGI (SK-MEL-28 melanoma) of over 100 µM. The TGI (RPMI-8226 leukemia) was over 100 µM, the TGI (A549 NSCLC) was over 100 µM and the TGI (SK-MEL-5 melanoma) was over 100 µM. The TGI (HCC-2998 colon) was over 100 µM and the TGI (MOLT-4 leukemia) was over 100 µM.

In the case of O=C1c2ccccc2-c2nc3ccc(O)cc3n21, the TGI (U251 CNS) is reported as over 100 µM, the TGI (ACHN renal) is reported as over 100 µM and the TGI (HL-60(TB) leukemia) is reported as over 100 µM. For the same compound, the TGI (K-562 leukemia) was over 100 µM, the TGI (NCI-H23 lung) was over 100 µM and the TGI (OVCAR-5 ovarian) was over 100 µM. It also gave a TGI (UACC-62 melanoma) of over 100 µM, a TGI (M14 melanoma) of over 100 µM and a TGI (COLO 205 colon) of over 100 µM. For the same compound, the TGI (NCI/ADR-RES ovarian) was over 100 µM, the TGI (MALME-3M melanoma) was over 100 µM and the TGI (UO-31 renal) was over 100 µM. For the same compound, the TGI (SK-MEL-28 melanoma) was over 100 µM, the TGI (RPMI-8226 leukemia) was over 100 µM and the TGI (A549 NSCLC) was over 100 µM. The TGI (SK-MEL-5 melanoma) was over 100 µM, the TGI (HCC-2998 colon) was over 100 µM and the TGI (MOLT-4 leukemia) was over 100 µM.

OCC1OC(Oc2cc(O)cc(/C=C\c3ccc(O)cc3)c2)C(O)C(O)C1O (stereo not given) gave a TGI (U251 CNS) of over 100 µM, a TGI (ACHN renal) of over 100 µM and a TGI (HL-60(TB) leukemia) of over 100 µM. For the same compound, the TGI (K-562 leukemia) was over 100 µM, the TGI (OVCAR-5 ovarian) was over 100 µM and the TGI (UACC-62 melanoma) was over 100 µM. The TGI (MDA-MB-435) was over 100 µM, the TGI (A498 renal) was over 100 µM and the TGI (NCI/ADR-RES ovarian) was over 100 µM. It also gave a TGI (UO-31 renal) of over 100 µM, a TGI (SK-MEL-28 melanoma) of over 100 µM and a TGI (RPMI-8226 leukemia) of over 100 µM. For the same compound, the TGI (A549 NSCLC) was over 100 µM, the TGI (SK-MEL-5 melanoma) was over 100 µM and the TGI (MOLT-4 leukemia) was over 100 µM.

CCOC(=O)C(Cc1ccccc1)NC(=O)c1ccc(N=NN(C)C)cc1 (stereo not given) gave a TGI (U251 CNS) of over 100 µM, a TGI (ACHN renal) of over 100 µM and a TGI (HL-60(TB) leukemia) of over 100 µM. For the same compound, the TGI (K-562 leukemia) was over 100 µM, the TGI (NCI-H23 lung) was over 100 µM and the TGI (OVCAR-5 ovarian) was over 100 µM. For the same compound, the TGI (UACC-62 melanoma) was over 100 µM, the TGI (M14 melanoma) was over 100 µM and the TGI (A498 renal) was over 100 µM. The TGI (COLO 205 colon) was over 100 µM, the TGI (MALME-3M melanoma) was over 100 µM and the TGI (UO-31 renal) was over 100 µM. It also gave a TGI (SK-MEL-28 melanoma) of over 100 µM, a TGI (RPMI-8226 leukemia) of over 100 µM and a TGI (A549 NSCLC) of over 100 µM. It also gave a TGI (SK-MEL-5 melanoma) of over 100 µM, a TGI (HCC-2998 colon) of over 100 µM and a TGI (MOLT-4 leukemia) of over 100 µM.

O=C(NCc1ccccc1)c1cc2cc(O)c(O)cc2cn1 gave a TGI (U251 CNS) of over 100 µM, a TGI (ACHN renal) of over 100 µM and a TGI (HL-60(TB) leukemia) of 48.6 µM. It also gave a TGI (K-562 leukemia) of over 100 µM, a TGI (NCI-H23 lung) of 46.8 µM and a TGI (OVCAR-5 ovarian) of 79.6 µM. The TGI (UACC-62 melanoma) was 44.8 µM, the TGI (M14 melanoma) was 43.1 µM and the TGI (A498 renal) was over 100 µM. It also gave a TGI (COLO 205 colon) of over 100 µM, a TGI (MALME-3M melanoma) of over 100 µM and a TGI (UO-31 renal) of 56.6 µM. For the same compound, the TGI (SK-MEL-28 melanoma) was over 100 µM, the TGI (RPMI-8226 leukemia) was over 100 µM and the TGI (A549 NSCLC) was over 100 µM. It also gave a TGI (SK-MEL-5 melanoma) of 50.9 µM and a TGI (HCC-2998 colon) of over 100 µM.
